Structures can show the parent of a compound that is named as a salt.
Columns and labels:
[1] = tested on: human bronchial epithelial cell line Calu-3; design: method as in earlier work; settings: Calu-3 cells; ref 5 (Mathias et al.); cited from earlier work
[2] = Static permeation study with 16HBE cell monolayer on porous membrane; format: in vitro ADME, human; settings: human; static, with 16HBE lung cell barrier, 100 µM apical, 72 h, model parameter estimate; read-out: P12, apparent permeability from the apical to the basolateral compartment and vice versa (converted)
Method: (§1) The bronchial cell line 16HBE was cultivated in Dulbecco's modified Eagle medium (DMEM/F12 with L-glutamine and HEPES; Gibco 11039-021, Thermo Fisher Scientific, Waltham, MA, USA), supplemented with 10% fetal bovine serum (FBS, […][…], Sigma Aldrich, St. Louis, MO, USA), 100 U/mL penicillin, and 100 μg/mL streptomycin (Gibco 15140-122, Thermo Fisher Scientific). The cells were cultivated in a humidified atmosphere at 37 °C and 5% CO2. The bronchial cell line 16HBE was obtained from Dr. […] (Cardiovascular Research Institute, University of California). […] The cells were cultivated in a 24-well plate (662160, Greiner bio-one, Frickenhausen, Germany) at 37 °C for five days under a physiological pH in the range of 7.0-7.4 with one CCM exchange after two days. […] The basolateral compartment was filled with fresh CCM. After model substance exposure, total apical, and basolateral CCM were collected each in a 1.5 mL tube ([…] Biotech GmbH & Co. […] For each time point, a separate cell culture insert was used. Samples were then stored at 4 °C until further analysis via HPLC. After the static and fluidic permeation studies, the model substances in the apical and basolateral CCM were quantified via HPLC measurements as described in […] et al.. […] The mobile phase consisted of three running agents: water (solvent A; sterile filtered 0.2 μm pore), acetonitrile (Solvent B; J.T. Baker), and 0.1% trifluoroacetic acid (TFA) in water (Solvent C; Fisher Scientific). The flow rate was set to 0.4 mL/min with 5 μL of the sample injected. […] For detection, a diode array detector (DAD) was used at a wavelength of 275 nm. To model the static in vitro permeation experiments (control and cell experiments), a bidirectional single-barrier model was implemented as a two-compartment ODE system. […] Thereby, […],i reflects the compound permeability through all present permeation barriers in the respective experimental setup, such as unstirred water layers, the porous filter membrane, and cell monolayer (apparent permeability). […] During parameter estimation in the static permeation study, permeability parameters ([…],i) were estimated by fitting the model-simulated concentrations to the observed experimental data via first-order conditional estimation method with interaction (FOCE-I) in […]®, using a combined proportional and additive residual error model (Equation (6)).

16HBE cells = assay: as above; format: in vitro ADME, human; settings: for potential metabolism in the pulmonary epithelial cells: static cellular experiments, from mass balance; for active transport in 16HBE cells: static cellular study, equilibrium with similar apical and basolateral concentrations
Method: as §1

[3] = Fluidic permeation study (QuasiVivo QV600) with 16HBE cell barrier; format: in vitro ADME; settings: human; fluidic cell experiment, 200 µL/min; static P12 multiplied by factor F; read-out: P16, apparent permeability between the apical and basolateral chambers in the fluidic system (converted)
Method: Fluidic permeation studies were performed in the MCmB QuasiVivo® […]), which was assembled according to the manufacturer's instructions. An apical and basolateral flow with a flow rate of 200 μL/min was used (Figure 7b). […] The apical circuit consisted of the apical reservoir bottle, the apical part of the pulmonary chamber, the pump, a three-way cock (B.Braun 4095111; dosing/sampling port; in order of medium flow), and connecting tubes. The basolateral circuit comprised the basolateral reservoir bottle, the basolateral part of the pulmonary chamber, a second chamber allowing the integration of additional cell tissues, the pump, the basolateral sampling port (in order of medium flow), and connecting tubes (Figure 8). Different tubing ([…]-2 Tubing set; […] VWR 228-1066, Radnor, PA, USA) was used to establish the optimal connection between the reservoir bottles, cell chambers, pump, and sampling ports. For the in vitro cell permeation studies, 4.3 × 10^4 16HBE cells were seeded in a cell culture insert with a pore size of 0.4 μm and a growth area of 0.6 cm^2 (PIHP 012 50, Merck Millipore) and cultivated at 37 °C for five days. […] After the static and fluidic permeation studies, the model substances in the apical and basolateral CCM were quantified via HPLC measurements as described in Elberskirch et al.. […]

[4] = Static permeation study without lung cells (control, porous membrane only); format: in vitro ADME; settings: not told, control without lung cell barrier (porous membrane 0.4 µm, 0.6 cm^2), 100 µM apical, model parameter estimate, read-out: P12, apparent permeability from the apical to the basolateral compartment and vice versa (converted)
Method: The cells were cultivated in a 24-well plate (662160, Greiner bio-one, Frickenhausen, Germany) at 37 °C for five days under a physiological pH in the range of 7.0-7.4 with one CCM exchange after two days. […] The basolateral compartment was filled with fresh CCM. After model substance exposure, total apical, and basolateral CCM were collected each in a 1.5 mL tube (Kisker Biotech GmbH & Co. […] For each time point, a separate cell culture insert was used. Samples were then stored at 4 °C until further analysis via HPLC. […] After the static and fluidic permeation studies, the model substances in the apical and basolateral CCM were quantified via HPLC measurements as described in Elberskirch et al.. […] Separation was performed using a Poroshell 120 EC-C18 column (2.1 × 100 mm, 2.7 μm; 695775-902, Agilent Technologies) connected to a guard column (Poroshell 120 EC-C18, 2.1 × 5 mm, 2.7 μm, Agilent Technologies). The mobile phase consisted of three running agents: water (solvent A; sterile filtered 0.2 μm pore), acetonitrile (Solvent B; J.T. Baker), and 0.1% trifluoroacetic acid (TFA) in water (Solvent C; Fisher Scientific). The flow rate was set to 0.4 mL/min with 5 μL of the sample injected. […] For detection, a diode array detector (DAD) was used at a wavelength of 275 nm. […]

[5] = cited from earlier work

| SMILES | apparent permeability (published value) [1] | Papp A→B at 72 h, 100 µM [2] | potential metabolism in the pulmonary epithelial cells (16HBE cells) | active transport in 16HBE cells (16HBE cells) | Papp at 72 h, 100 µM [3] | Papp A→B at 72 h, 100 µM [4] | logP [5] |
| --- | --- | --- | --- | --- | --- | --- | --- |
| Cn1c(=O)c2c(ncn2C)n(C)c1=O [caffeine] | 21.8 ×10⁻⁶ cm/s | 43.7 ×10⁻⁶ cm/s | negligible | neither caffeine nor diclofenac were subject to active transport | 14.9 ×10⁻⁶ cm/s | 54.5 ×10⁻⁶ cm/s |  |
| O=C(O)Cc1ccccc1Nc1c(Cl)cccc1Cl [diclofenac, diclofenac sodium salt] |  | 23 ×10⁻⁶ cm/s | negligible | neither caffeine nor diclofenac were subject to active transport | 3.92 ×10⁻⁶ cm/s | 41.8 ×10⁻⁶ cm/s | ~ 4 |
